In ChEMBL document CHEMBL4138105, “LL-37-derived short antimicrobial peptide KR-12-a5 and its d-amino acid substituted analogs with cell selectivity, anti-biofilm activity, synergistic effect with conventional antibiotics, and anti-inflammatory activity” (Eur J Med Chem, 2017):
In brackets after ≈: the same amount, converted by molar mass. Activity calls are given as the source filed them. The rule behind the calls is not given here.

Key:
[1] = tested on: Pseudomonas aeruginosa; experiment: Synergistic antibacterial activity against multidrug-resistant Pseudomonas aeruginosa CCARM 2095 after 72 hrs in presence of ciprofloxacin by chequerboard assay; type: functional
[2] = tested on: Staphylococcus aureus; experiment: Antibacterial activity against Staphylococcus aureus KCTC 1621 after 24 hrs; type: functional; settings: KCTC 1621, 24 h
[3] = tested on: Enterococcus faecium; experiment: Potency index, ratio of LL-37 MIC to compound MIC for Vancomycin-resistant Enterococcus faecium ATCC 51559; type: functional
[4] = tested on: Enterococcus faecium; experiment: Potency index, ratio of melittin MIC to compound MIC for Vancomycin-resistant Enterococcus faecium ATCC 51559; type: functional
[5] = tested on: Escherichia coli; experiment: Antibacterial activity against Escherichia coli KCTC 1682 in presence of 150 mM NaCl after 24 hrs; type: functional; settings: KCTC 1682, 24 h
[6] = tested on: Staphylococcus aureus; experiment: Antibacterial activity against Staphylococcus aureus KCTC 1621 assessed as cell membrane disruption at 2 times MIC within 4 mins by Sytox Green dye based fluorescence spectrophotometer assay; type: functional, organism-based
[7] = tested on: Staphylococcus aureus; experiment: Antibacterial activity against methicillin resistant Staphylococcus aureus CCARM 3095 after 24 hrs; type: functional; settings: CCARM 3095, 24 h
[8] = tested on: Staphylococcus aureus; experiment: Antibacterial activity against Staphylococcus aureus KCTC 1621 in presence of 20% human serum after 24 hrs; type: functional; settings: KCTC 1621, 24 h
[9] = tested on: Staphylococcus aureus; experiment: Potency index, ratio of LL-37 MIC to compound MIC for methicillin resistant Staphylococcus aureus CCARM 3090; type: functional
[10] = tested on: Staphylococcus aureus; experiment: Antibacterial activity against methicillin resistant Staphylococcus aureus CCARM 3089 after 24 hrs; type: functional; settings: CCARM 3089, 24 h
[11] = tested on: Staphylococcus aureus; experiment: Ratio of MIC for Staphylococcus aureus KCTC 1621 in presence of 20% human serum to MIC for Escherichia coli KCTC 1682 in presence of 20% human serum; type: functional
[12] = tested on: Staphylococcus aureus; experiment: Potency index, ratio of melittin MIC to compound MIC for methicillin resistant Staphylococcus aureus CCARM 3095; type: functional
[13] = tested on: Salmonella typhimurium; experiment: Antibacterial activity against Salmonella typhimurium KCTC 11926 after 24 hrs; type: functional, Salmonella enterica subsp. enterica serovar Typhimurium; settings: Salmonella enterica, KCTC 11926, 24 h
[14] = tested on: RAW264.7; experiment: Anti-inflammatory activity in mouse RAW264.7 cells assessed as reduction in LPS-induced IL-6 production at 10 to 20 uM preincubated for 1 hr followed by LPS stimulation measured after 6 hrs by ELISA; type: functional, cell-based
[15] = Hemolytic activity in human RBC at 96 uM after 1 hr relative to control; type: ADME, cell-based, Erythrocyte; settings: red blood cells (RBC, erythrocytes), read-out: Activity

| SMILES | fractional inhibitory concentration index (FICI) [1] | MIC [2] | Ratio [3] | Ratio [4] | MIC [5] | Activity [6] | MIC [7] | MIC [8] | Ratio [9] | MIC [10] | Ratio [11] | Ratio [12] | MIC [13] | Activity [14] | hemolysis at 1 h, 96 µM [15] |
| --- | --- | --- | --- | --- | --- | --- | --- | --- | --- | --- | --- | --- | --- | --- | --- |
| CC[C@H](C)[C@H](NC(=O)[C@H](CC(C)C)NC(=O)[C@@H](CCCCN)NC(=O)[C@@H](NC(=O)[C@@H](NC(=O)[C@H](CCCNC(=N)N)NC(=O)[C@@H](N)CCCCN)[C@@H](C)CC)C(C)C)C(=O)N[C@@H](CC(C)C)C(=O)N[C@@H](CCCCN)C(=O)N[C@@H](Cc1c[nH]c2ccccc12)C(=O)N[C@@H](CC(C)C)C(=O)N[C@@H](CCCNC(=N)N)C(N)=O | 0.5 | 2 µM (≈ 3.13 µg/mL) | 2 - 4 | 2 - 4 | 4 µM | Active | 4 µM (≈ 6.26 µg/mL) | 16 µM | 2 - 4 | 4 µM (≈ 6.26 µg/mL) | 2 - 8 | 2 - 4 | 2 µM (≈ 3.13 µg/mL) | Active |  |
| CC[C@H](C)[C@H](NC(=O)[C@H](CCCNC(=N)N)NC(=O)[C@@H](N)CCCCN)C(=O)N[C@H](C(=O)N[C@@H](CCCCN)C(=O)N[C@H](CC(C)C)C(=O)N[C@H](C(=O)N[C@@H](CC(C)C)C(=O)N[C@@H](CCCCN)C(=O)N[C@@H](Cc1c[nH]c2ccccc12)C(=O)N[C@@H](CC(C)C)C(=O)N[C@@H](CCCNC(=N)N)C(N)=O)[C@@H](C)CC)C(C)C | 0.3125 | 2 µM (≈ 3.13 µg/mL) | 2 - 4 | 2 - 4 | 4 µM | Active | 4 µM (≈ 6.26 µg/mL) | 16 µM | 2 - 4 | 4 µM (≈ 6.26 µg/mL) | 2 - 8 | 2 - 4 | 2 µM (≈ 3.13 µg/mL) | Active |  |
| CC[C@H](C)[C@H](NC(=O)[C@H](CC(C)C)NC(=O)[C@H](CCCCN)NC(=O)[C@@H](NC(=O)[C@@H](NC(=O)[C@H](CCCNC(=N)N)NC(=O)[C@@H](N)CCCCN)[C@@H](C)CC)C(C)C)C(=O)N[C@@H](CC(C)C)C(=O)N[C@@H](CCCCN)C(=O)N[C@@H](Cc1c[nH]c2ccccc12)C(=O)N[C@@H](CC(C)C)C(=O)N[C@@H](CCCNC(=N)N)C(N)=O | 0.3125 | 4 µM (≈ 6.26 µg/mL) | 2 - 4 | 2 - 4 | 8 µM | Active | 4 µM (≈ 6.26 µg/mL) | 8 µM | 2 - 4 | 4 µM (≈ 6.26 µg/mL) | 2 - 8 | 2 - 4 | 2 µM (≈ 3.13 µg/mL) | Active | 50% |
| CC[C@H](C)[C@H](NC(=O)[C@H](CCCNC(=N)N)NC(=O)[C@@H](N)CCCCN)C(=O)N[C@H](C(=O)N[C@@H](CCCCN)C(=O)N[C@@H](CC(C)C)C(=O)N[C@H](CC(C)C)C(=O)N[C@@H](CC(C)C)C(=O)N[C@@H](CCCCN)C(=O)N[C@@H](Cc1c[nH]c2ccccc12)C(=O)N[C@@H](CC(C)C)C(=O)N[C@@H](CCCNC(=N)N)C(N)=O)C(C)C | 0.3125 | 2 µM (≈ 3.13 µg/mL) | 2 - 4 | 2 - 4 | 4 µM | Active | 4 µM (≈ 6.26 µg/mL) | 16 µM | 2 - 4 | 4 µM (≈ 6.26 µg/mL) | 2 - 8 | 2 - 4 | 2 µM (≈ 3.13 µg/mL) | Active |  |
